Source: PubChem BioAssay (NCI)
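Results reflect a 48-hour exposure of cells in 96-well plates to compound at five concentrations. GI50 is the concentration that inhibits growth by half. Definition used: TGI = concentration required for complete inhibition of growth.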

Tests used:
Test in all cases: NCI anticancer screen, dose series, 48 h
SNB-19 CNS = tested on: SNB-19 CNS
HCT-116 colon = tested on: HCT-116 colon
HL-60(TB) leukemia = tested on: HL-60(TB) leukemia
CAKI-1 renal = tested on: CAKI-1 renal
KM12 colon = tested on: KM12 colon
NCI-H522 lung = tested on: NCI-H522 lung
SN12C renal = tested on: SN12C renal
SF-539 CNS = tested on: SF-539 CNS
HCT-15 colon = tested on: HCT-15 colon
ACHN renal = tested on: ACHN renal
MCF7 breast = tested on: MCF7 breast
MDA-MB-435 = tested on: MDA-MB-435
DU-145 prostate = tested on: DU-145 prostate
MDA-MB-231 breast = tested on: MDA-MB-231 breast
PC-3 prostate = tested on: PC-3 prostate
HOP-92 NSCLC = tested on: HOP-92 NSCLC
SF-268 CNS = tested on: SF-268 CNS
OVCAR-4 ovarian = tested on: OVCAR-4 ovarian
U251 CNS = tested on: U251 CNS
A549 NSCLC = tested on: A549 NSCLC
SK-MEL-2 melanoma = tested on: SK-MEL-2 melanoma
SW-620 colon = tested on: SW-620 colon
NCI-H23 lung = tested on: NCI-H23 lung
SR leukemia = tested on: SR leukemia
IGROV1 ovarian = tested on: IGROV1 ovarian
HS 578T breast = tested on: HS 578T breast
UACC-62 melanoma = tested on: UACC-62 melanoma
SNB-75 CNS = tested on: SNB-75 CNS
RXF 393 renal = tested on: RXF 393 renal
NCI/ADR-RES ovarian = tested on: NCI/ADR-RES ovarian
RPMI-8226 leukemia = tested on: RPMI-8226 leukemia
OVCAR-5 ovarian = tested on: OVCAR-5 ovarian
HT29 colon = tested on: HT29 colon
UO-31 renal = tested on: UO-31 renal
NCI-H226 lung = tested on: NCI-H226 lung
MALME-3M melanoma = tested on: MALME-3M melanoma
M14 melanoma = tested on: M14 melanoma
COLO 205 colon = tested on: COLO 205 colon
A498 renal = tested on: A498 renal
CCRF-CEM leukemia = tested on: CCRF-CEM leukemia
SK-MEL-28 melanoma = tested on: SK-MEL-28 melanoma
EKVX NSCLC = tested on: EKVX NSCLC
OVCAR-8 ovarian = tested on: OVCAR-8 ovarian
SK-OV-3 ovarian = tested on: SK-OV-3 ovarian
786-0 renal = tested on: 786-0 renal
T-47D breast = tested on: T-47D breast
MOLT-4 leukemia = tested on: MOLT-4 leukemia
SK-MEL-5 melanoma = tested on: SK-MEL-5 melanoma
HOP-62 NSCLC = tested on: HOP-62 NSCLC
K-562 leukemia = tested on: K-562 leukemia
OVCAR-3 ovarian = tested on: OVCAR-3 ovarian
SF-295 CNS = tested on: SF-295 CNS
BT-549 breast = tested on: BT-549 breast
LOX IMVI melanoma = tested on: LOX IMVI melanoma
TK-10 renal = tested on: TK-10 renal
UACC-257 melanoma = tested on: UACC-257 melanoma
NCI-H460 lung = tested on: NCI-H460 lung

Work on `O=C(CSc1nc2ccc(I)cc2c(=O)n1Cc1ccccc1)Nc1ccc(Br)cc1` yielded a TGI (SNB-19 CNS) greater than 100 µM, a TGI (HCT-116 colon) greater than 100 µM and a TGI (HL-60(TB) leukemia) greater than 100 µM. For the same molecule, the TGI (CAKI-1 renal) was 20.2 µM, the TGI (KM12 colon) was greater than 100 µM and the TGI (NCI-H522 lung) was greater than 100 µM. For the same molecule, the TGI (SN12C renal) was greater than 100 µM, the TGI (SF-539 CNS) was 6.1 µM and the TGI (HCT-15 colon) was greater than 100 µM. It also gave a TGI (ACHN renal) greater than 100 µM, a TGI (MCF7 breast) greater than 100 µM and a TGI (MDA-MB-435) greater than 100 µM. The TGI (DU-145 prostate) was greater than 100 µM, the TGI (MDA-MB-231 breast) was 89.7 µM and the TGI (PC-3 prostate) was 58.6 µM. For the same molecule, the TGI (HOP-92 NSCLC) was greater than 100 µM, the TGI (SF-268 CNS) was 28 µM and the TGI (OVCAR-4 ovarian) was greater than 100 µM. For the same molecule, the TGI (U251 CNS) was greater than 100 µM, the TGI (A549 NSCLC) was greater than 100 µM and the TGI (SK-MEL-2 melanoma) was greater than 100 µM. For the same molecule, the TGI (SW-620 colon) was greater than 100 µM, the TGI (NCI-H23 lung) was greater than 100 µM and the TGI (SR leukemia) was 27.4 µM. The TGI (IGROV1 ovarian) was greater than 100 µM, the TGI (HS 578T breast) was 62.7 µM and the TGI (UACC-62 melanoma) was greater than 100 µM. The TGI (SNB-75 CNS) was 36.6 µM, the TGI (RXF 393 renal) was greater than 100 µM and the TGI (NCI/ADR-RES ovarian) was greater than 100 µM. For the same molecule, the TGI (RPMI-8226 leukemia) was greater than 100 µM, the TGI (OVCAR-5 ovarian) was greater than 100 µM and the TGI (HT29 colon) was greater than 100 µM. For the same molecule, the TGI (UO-31 renal) was 382 nM, the TGI (NCI-H226 lung) was greater than 100 µM and the TGI (MALME-3M melanoma) was 61.6 µM. It also gave a TGI (M14 melanoma) greater than 100 µM, a TGI (COLO 205 colon) greater than 100 µM and a TGI (A498 renal) of 68.1 µM. The TGI (CCRF-CEM leukemia) was greater than 100 µM, the TGI (SK-MEL-28 melanoma) was greater than 100 µM and the TGI (EKVX NSCLC) was 38.9 µM. It also gave a TGI (OVCAR-8 ovarian) of 36.2 µM, a TGI (SK-OV-3 ovarian) greater than 100 µM and a TGI (786-0 renal) greater than 100 µM. For the same molecule, the TGI (T-47D breast) was greater than 100 µM, the TGI (MOLT-4 leukemia) was greater than 100 µM and the TGI (SK-MEL-5 melanoma) was greater than 100 µM. For the same molecule, the TGI (HOP-62 NSCLC) was greater than 100 µM, the TGI (K-562 leukemia) was greater than 100 µM and the TGI (OVCAR-3 ovarian) was greater than 100 µM. It also gave a TGI (SF-295 CNS) greater than 100 µM, a TGI (BT-549 breast) greater than 100 µM and a TGI (LOX IMVI melanoma) greater than 100 µM.

For `C=C1C(O)C2C(=C(CC(C)C)C13CC3)C(=O)C(C)(C)C2OC` (stereo not drawn), the GI50 (SNB-19 CNS) was greater than 100 µM, the TGI (SNB-19 CNS) was greater than 100 µM and the GI50 (HCT-116 colon) was 81.5 µM. For the same molecule, the TGI (HCT-116 colon) was greater than 100 µM, the GI50 (KM12 colon) was greater than 100 µM and the TGI (KM12 colon) was greater than 100 µM. It also gave a GI50 (NCI-H522 lung) greater than 100 µM, a TGI (NCI-H522 lung) greater than 100 µM and a GI50 (SN12C renal) greater than 100 µM. For the same molecule, the TGI (SN12C renal) was greater than 100 µM, the GI50 (SF-539 CNS) was greater than 100 µM and the TGI (SF-539 CNS) was greater than 100 µM. It also gave a GI50 (HCT-15 colon) greater than 100 µM, a TGI (HCT-15 colon) greater than 100 µM and a GI50 (ACHN renal) greater than 100 µM. It also gave a TGI (ACHN renal) greater than 100 µM, a GI50 (MCF7 breast) greater than 100 µM and a TGI (MCF7 breast) greater than 100 µM. It also gave a GI50 (MDA-MB-435) greater than 100 µM, a TGI (MDA-MB-435) greater than 100 µM and a GI50 (DU-145 prostate) greater than 100 µM. It also gave a TGI (DU-145 prostate) greater than 100 µM, a GI50 (MDA-MB-231 breast) greater than 100 µM and a TGI (MDA-MB-231 breast) greater than 100 µM. It also gave a GI50 (PC-3 prostate) greater than 100 µM, a TGI (PC-3 prostate) greater than 100 µM and a GI50 (HOP-92 NSCLC) of 97 µM. The TGI (HOP-92 NSCLC) was greater than 100 µM, the GI50 (SF-268 CNS) was greater than 100 µM and the TGI (SF-268 CNS) was greater than 100 µM. For the same molecule, the GI50 (OVCAR-4 ovarian) was greater than 100 µM, the TGI (OVCAR-4 ovarian) was greater than 100 µM and the GI50 (U251 CNS) was greater than 100 µM. For the same molecule, the TGI (U251 CNS) was greater than 100 µM, the GI50 (A549 NSCLC) was greater than 100 µM and the TGI (A549 NSCLC) was greater than 100 µM. For the same molecule, the GI50 (SK-MEL-2 melanoma) was greater than 100 µM, the TGI (SK-MEL-2 melanoma) was greater than 100 µM and the GI50 (SW-620 colon) was greater than 100 µM. It also gave a TGI (SW-620 colon) greater than 100 µM, a GI50 (NCI-H23 lung) greater than 100 µM and a TGI (NCI-H23 lung) greater than 100 µM. The GI50 (SR leukemia) was 82.9 µM, the TGI (SR leukemia) was greater than 100 µM and the GI50 (HS 578T breast) was greater than 100 µM. It also gave a TGI (HS 578T breast) greater than 100 µM, a GI50 (UACC-62 melanoma) greater than 100 µM and a TGI (UACC-62 melanoma) greater than 100 µM. For the same molecule, the GI50 (RXF 393 renal) was greater than 100 µM, the TGI (RXF 393 renal) was greater than 100 µM and the GI50 (NCI/ADR-RES ovarian) was greater than 100 µM. It also gave a TGI (NCI/ADR-RES ovarian) greater than 100 µM, a GI50 (RPMI-8226 leukemia) of 65.3 µM and a TGI (RPMI-8226 leukemia) greater than 100 µM. For the same molecule, the GI50 (TK-10 renal) was greater than 100 µM, the TGI (TK-10 renal) was greater than 100 µM and the GI50 (OVCAR-5 ovarian) was greater than 100 µM. The TGI (OVCAR-5 ovarian) was greater than 100 µM, the GI50 (HT29 colon) was greater than 100 µM and the TGI (HT29 colon) was greater than 100 µM. It also gave a GI50 (UO-31 renal) greater than 100 µM, a TGI (UO-31 renal) greater than 100000 nM and a GI50 (MALME-3M melanoma) greater than 100 µM. It also gave a TGI (MALME-3M melanoma) greater than 100 µM, a GI50 (M14 melanoma) greater than 100 µM and a TGI (M14 melanoma) greater than 100 µM. The GI50 (COLO 205 colon) was greater than 100 µM, the TGI (COLO 205 colon) was greater than 100 µM and the GI50 (A498 renal) was greater than 100 µM. For the same molecule, the TGI (A498 renal) was greater than 100 µM, the GI50 (CCRF-CEM leukemia) was 86.6 µM and the TGI (CCRF-CEM leukemia) was greater than 100 µM. For the same molecule, the GI50 (SK-MEL-28 melanoma) was greater than 100 µM, the TGI (SK-MEL-28 melanoma) was greater than 100 µM and the GI50 (EKVX NSCLC) was greater than 100 µM. It also gave a TGI (EKVX NSCLC) greater than 100 µM, a GI50 (OVCAR-8 ovarian) greater than 100 µM and a TGI (OVCAR-8 ovarian) greater than 100 µM. It also gave a GI50 (SK-OV-3 ovarian) greater than 100 µM, a TGI (SK-OV-3 ovarian) greater than 100 µM and a GI50 (786-0 renal) greater than 100 µM. The TGI (786-0 renal) was greater than 100 µM, the GI50 (T-47D breast) was greater than 100 µM and the TGI (T-47D breast) was greater than 100 µM. For the same molecule, the GI50 (MOLT-4 leukemia) was 24.2 µM, the TGI (MOLT-4 leukemia) was 66.8 µM and the GI50 (SK-MEL-5 melanoma) was greater than 100 µM. The TGI (SK-MEL-5 melanoma) was greater than 100 µM, the GI50 (HOP-62 NSCLC) was greater than 100 µM and the TGI (HOP-62 NSCLC) was greater than 100 µM. It also gave a GI50 (UACC-257 melanoma) greater than 100 µM, a TGI (UACC-257 melanoma) greater than 100 µM and a GI50 (K-562 leukemia) of 81.5 µM. It also gave a TGI (K-562 leukemia) greater than 100 µM, a GI50 (OVCAR-3 ovarian) greater than 100 µM and a TGI (OVCAR-3 ovarian) greater than 100 µM. For the same molecule, the GI50 (SF-295 CNS) was greater than 100 µM, the TGI (SF-295 CNS) was greater than 100 µM and the GI50 (BT-549 breast) was greater than 100 µM. It also gave a TGI (BT-549 breast) greater than 100 µM, a GI50 (LOX IMVI melanoma) greater than 100 µM and a TGI (LOX IMVI melanoma) greater than 100 µM. For the same molecule, the GI50 (NCI-H460 lung) was greater than 100 µM and the TGI (NCI-H460 lung) was greater than 100 µM.
